29 compounds from the COVID Moonshot data (paper PMC11187573), “Identification of SARS-CoV-2 Mpro inhibitors through deep reinforcement learning for de novo drug design and computational chemistry approaches” (RSC Medicinal Chemistry, 2024) can be followed below.

Assay [1] concerns the target SARS-CoV-2 Main Protease (SARS-CoV-2) (UniProt P0DTD1).
For assay [2] the target is unchanged. This is another data set of the same source.

Regarding `CNC(=O)c1cc(Cl)cc(CC(=O)Nc2cnccc2C)c1`, the IC50 (commonly the point on the concentration scale where inhibition reaches its midpoint) was determined as 51.5 µM in assay [1] and 43.9 µM in assay [2].

In the case of `COC(=O)c1c(C)n(S(C)(=O)=O)c2ccc(N(C(=O)c3ccco3)S(C)(=O)=O)cc12`, the inhibition (as a rule, the relative decrease from the control value, in per cent) in assay [1] (20.0 µM) is 47.7%; in assay [1] (50.0 µM), 97.8%. This compound also came in with a 50% inhibitory concentration (IC50) in assay [2] of 0.335 µM.

Turning to `C=CC(=O)N(c1ccc(C(C)OC)cc1)C(C(=O)Nc1cccc(CC)c1)c1cccnc1` (centres undefined), the values for the inhibition in assay [1] (20.0 µM), in assay [1] (50.0 µM) and in assay [2] (20.0 µM) were 36.6%, 63.7% and 4.44%, respectively.

`CN1CCN(C(=O)Cc2c[nH]c3ncc(C(=O)NCCc4c[nH]c5ccc(F)cc45)cc23)CC1`: the inhibition was -1.5% in assay [1] (20.0 µM), 7.57% in assay [1] (50.0 µM) and 8.74% in assay [2] (50.0 µM).

With `Cc1ncccc1NC(=O)Cc1cccc(Cl)c1`, the results for the inhibition in assay [1] (20.0 µM), in assay [1] (50.0 µM) and in assay [2] (50.0 µM) were -4.59%, -3.9% and 0%, respectively.

For `OC[C@@]1(F)CCN(c2nc(-c3cccnc3)nc3sc4c(c23)CCC4)C1` (stereo in doubt), the inhibition came to 1.46% in assay [1] (20.0 µM), 6.05% in assay [1] (50.0 µM) and 0% in assay [2] (50.0 µM).

In the case of `O=c1oc(Nc2ccccc2)nc2ccccc12`, the results for the inhibition in assay [1] (20.0 µM) and in assay [1] (50.0 µM) were 68.6% and 90.4%, respectively. For the same compound, the IC50 in assay [2] turned out to be 0.363 µM.

For the compound `N#Cc1ccc(CN2C(=O)C(=O)c3cccc(Br)c32)c(F)c1`, the inhibition in assay [1] (20.0 µM) was -1.68%; in assay [1] (50.0 µM) it was -0.391%; in assay [2] (50.0 µM), 72.1%. Moreover, in assay [2], the IC50 was 14.3 µM.

Consider `Cc1ccccc1NC(=O)CC1SC(=O)N(c2ccccc2)C1=O` (centres undefined), for which the inhibition turned out to be 92.6% in assay [1] (20.0 µM) and 94.9% in assay [1] (50.0 µM). The compound further displayed an IC50 in assay [2] of 0.658 µM.

Take `C=CC(=O)N1CCN(Cc2ccc(F)cc2)CC1`: the inhibition in assay [1] (20.0 µM) turned out to be 7.92%; in assay [1] (50.0 µM), 11.4%; in assay [2] (50.0 µM), 0%.

Regarding `CO[C@@H]1C[C@@H](COc2cccnc2)N(c2ncccn2)C1` (stereo in doubt), the values for the inhibition in assay [1] (20.0 µM), in assay [1] (50.0 µM) and in assay [2] (50.0 µM) were -6.63%, -1.19% and 0%, respectively.

Take `Cc1ccc(S(=O)(=O)N2CCC(NC(=O)N(C)Cc3cc(C)on3)CC2)cc1`: the inhibition in assay [1] (20.0 µM) was -1.1%; in assay [1] (50.0 µM), 2.6%; in assay [2] (50.0 µM), 0%.

For `O=S(=O)(Nc1ccccc1SCc1cccc(Cl)c1F)c1cc(Cl)sc1Cl`, the inhibition in assay [1] (20.0 µM) was 90.3%; in assay [1] (50.0 µM) it was 81.3%. The same compound gave an IC50 in assay [2] of 1.92 µM.

On to `N#Cc1cccc(CN2C(=O)C(=O)c3cccc(Br)c32)c1`, for which the inhibition in assay [1] (20.0 µM) is -5.42%; in assay [1] (50.0 µM), -2.38%; in assay [2] (50.0 µM), 91.2%. This compound returned an IC50 in assay [2] of 0.017 µM.

Take `CCC(=O)Nc1ccc(N(Cc2ccsc2)C(=O)Cn2nnc3ccccc32)cc1`: the inhibition in assay [1] (20.0 µM) is 79.7%; in assay [1] (50.0 µM), 89.3%; in assay [2] (50.0 µM), 78.1%.

With `C=CC(=O)N(C1CC(C)OC1=O)C(C(=O)NC(C)(C)C)c1cccnc1` (centres undefined), the figures for the inhibition in assay [1] (20.0 µM), in assay [1] (50.0 µM) and in assay [2] (50.0 µM) were -2.18%, 1.34% and 0%, respectively.

For `C/C(O)=C(\C#N)C(=O)Nc1ccc(C(F)(F)F)cc1`, the inhibition is -2.89% in assay [1] (20.0 µM), -3% in assay [1] (50.0 µM) and 22.2% in assay [2] (50.0 µM).

As for `C=CC(=O)N(C1CCOC1=O)C(C(=O)NC(C)(C)C)c1cccnc1` (centres undefined), the results for the inhibition in assay [1] (20.0 µM), in assay [1] (50.0 µM) and in assay [2] (50.0 µM) were -5.08%, -7.63% and 0%, respectively.

For `C=CC(=O)N(C(C)COc1cccc(F)c1)C(C(=O)NC(C)(C)C)c1cccnc1` (centres undefined), the inhibition in assay [1] (20.0 µM) was -1.52%; in assay [1] (50.0 µM), -5.54%; in assay [2] (50.0 µM), 0%.

Regarding `COc1ccccc1OCC(C)NC(=O)c1cc(=O)[nH]c2ccc(F)cc12` (centres undefined), the inhibition in assay [1] (20.0 µM) worked out at 42%; in assay [1] (50.0 µM), 59.3%; in assay [2] (50.0 µM), 40.1%.

For the compound `CSC1=C(C#N)C2(CCCCC2)C(C#N)=C(NC(=O)CCl)N1`, the IC50 in assay [1] came to 1.14 µM; in assay [2], 1.52 µM. In assay [2] (50.0 µM), the inhibition was 97.5%.

For the compound `Cc1nc[nH]c1CN1CCN(Cc2cccc(Cl)c2)C1=O`, the inhibition is -0.267% in assay [1] (20.0 µM), 2.39% in assay [1] (50.0 µM) and 0% in assay [2] (50.0 µM).

In the case of `CC(C)n1cnnc1CNC(=O)C1CCOc2ccccc21` (centres undefined), the inhibition in assay [1] (20.0 µM) is -4.11%; in assay [1] (50.0 µM) it was -1.11%; in assay [2] (50.0 µM), 0%.

As for `O=C(CCl)N1CCN(Cc2cnc(-c3ccccc3)nc2)CC1`, the inhibition in assay [1] (20.0 µM) was determined as 6.18%; in assay [1] (50.0 µM), 15.7%; in assay [2] (50.0 µM), 0%.

Turning to `Cc1cc(C)nc(NC2CCN(C(=O)CCl)CC2)n1`, the inhibition in assay [1] (20.0 µM) stood at 46.1%; in assay [1] (50.0 µM), 81.5%; in assay [2] (50.0 µM), 100%. The IC50 in assay [2] was 19.5 µM.

As to `COc1cc(OC)cc(Oc2ccc(CNC(=O)Cn3nnc4ccccc43)cc2)c1`, the inhibition in assay [1] (20.0 µM) is 4.58%; in assay [1] (50.0 µM), 17.3%; in assay [2] (50.0 µM), 0%.

Regarding `O=C(Cc1ccsc1)N1CCN(c2cc(-c3cccs3)n[nH]2)CC1`, the inhibition in assay [1] (20.0 µM) was found to be 13.1%; in assay [1] (50.0 µM) it was 42.2%. Besides, in assay [2], the IC50 worked out at 78.2 µM.

Turning to `CCOc1ccccc1OC1CCN(C(=O)c2c(C)c(=O)[nH]c3ccccc23)C1` (centres undefined), the inhibition in assay [1] (20.0 µM) was found to be 0.342%; in assay [1] (50.0 µM), 4.57%; in assay [2] (50.0 µM) it was 0%.

As to `c1ccc(-c2cc(Sc3nnc(-c4cccs4)o3)n3ncnc3n2)cc1`, the inhibition in assay [1] (20.0 µM) stood at 47.1%; in assay [1] (50.0 µM), 96.7%. In assay [2], the IC50 is 0.152 µM.
